In ChEMBL document CHEMBL1151343, “Antitumor plants. X. Constituents of Nectandra rigida” (1980):
Converted amounts (≈) assume the structure as drawn.

Tested on: KB
Assay: Cytotoxicity against human KB cells
Type: functional
Details: read-out: ED50 (the source's name)

C/C=C/c1cc(OC)c2c(c1)[C@H](C)[C@@H](c1ccc(O)c(OC)c1)O2 [LICARIN A]
EC50: 7 µg/mL (≈ 21.4 µM)
